The test system of data set [1] is Cynomolgus monkey. Nature of the data set: Cardiotoxicity in telemetered cynomolgus monkey assessed as increase in mean blood pressure at 1.5 to 6 mg/kg, sc measured after 1 to 4 hrs by telemetry method. Conditions: in vivo. The class given is toxicity, organism-based, Macaca fascicularis. Further details: route subcutaneous.
In data set [2] the test system is Mus musculus. Put plainly: Antipsychotic activity in ddY mouse assessed as reversal of apomorphine-induced climbing behaviour at 0.3 to 3 mg/kg, sc administered 20 mins prior to apomorphine injection measured for 20 mins from 10 mins after apomorphine challenge. The class given is functional, organism-based.
Data set [3] deals with T1, Muscarinic acetylcholine receptor M1 (Homo sapiens) (UniProt P11229).
T1 sequence (whole entry): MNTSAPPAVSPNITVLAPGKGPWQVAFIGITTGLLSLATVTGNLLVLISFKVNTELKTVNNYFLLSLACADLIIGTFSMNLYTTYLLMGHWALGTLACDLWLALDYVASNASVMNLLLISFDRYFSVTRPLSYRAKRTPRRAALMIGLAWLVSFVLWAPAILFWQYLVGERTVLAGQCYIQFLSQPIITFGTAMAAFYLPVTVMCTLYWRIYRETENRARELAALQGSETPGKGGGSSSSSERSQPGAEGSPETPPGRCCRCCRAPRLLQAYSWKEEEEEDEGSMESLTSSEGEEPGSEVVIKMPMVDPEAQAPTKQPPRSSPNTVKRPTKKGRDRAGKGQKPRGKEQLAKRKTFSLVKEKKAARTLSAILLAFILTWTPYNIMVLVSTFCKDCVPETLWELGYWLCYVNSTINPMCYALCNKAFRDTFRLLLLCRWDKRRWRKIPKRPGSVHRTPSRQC
Nature of the data set: Partial agonist activity at human M1 receptor in CHO cells assessed as calcium mobilization at 3 uM after 60 mins by FLIPR assay. The class given is functional, cell-based.

Data set [4] addresses T2, Muscarinic acetylcholine receptor M1 (Homo sapiens, UniProt P11229).
T2 sequence (P11229 whole entry): T1 sequence (whole entry)
Put plainly: (§1) Partial agonist activity at human M1 receptor in CHO cells assessed as calcium mobilization after 60 mins by FLIPR assay. It is filed as functional, cell-based.

Data set [5] deals with T1, Muscarinic acetylcholine receptor M1 (Homo sapiens). The description is as §1. The class given is functional, cell-based.
Data set [6] has as its target T3, Muscarinic acetylcholine receptor M2 (Homo sapiens) (UniProt P08172).
T3 sequence (whole entry): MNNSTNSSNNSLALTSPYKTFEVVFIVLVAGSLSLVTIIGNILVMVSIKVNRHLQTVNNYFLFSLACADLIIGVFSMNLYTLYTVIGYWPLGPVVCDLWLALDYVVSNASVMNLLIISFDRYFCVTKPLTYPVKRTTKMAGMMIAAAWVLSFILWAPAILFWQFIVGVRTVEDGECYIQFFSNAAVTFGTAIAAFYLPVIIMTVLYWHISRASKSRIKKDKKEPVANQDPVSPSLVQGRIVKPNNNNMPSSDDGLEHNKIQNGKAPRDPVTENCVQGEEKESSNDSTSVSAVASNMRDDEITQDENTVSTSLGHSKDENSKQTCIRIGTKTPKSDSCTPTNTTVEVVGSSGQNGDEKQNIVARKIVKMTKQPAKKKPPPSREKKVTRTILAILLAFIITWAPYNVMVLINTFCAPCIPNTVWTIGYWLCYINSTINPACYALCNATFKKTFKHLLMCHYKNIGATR
Put plainly: Partial agonist activity at human M2 receptor co-expressed with Galpha16 in CHO cells assessed as calcium mobilization at 3 uM after 60 mins by FLIPR assay. It is filed as functional, cell-based.

For data set [7], the target named is T4, Muscarinic acetylcholine receptor M5 (Homo sapiens) (UniProt P08912).
T4 sequence (whole entry): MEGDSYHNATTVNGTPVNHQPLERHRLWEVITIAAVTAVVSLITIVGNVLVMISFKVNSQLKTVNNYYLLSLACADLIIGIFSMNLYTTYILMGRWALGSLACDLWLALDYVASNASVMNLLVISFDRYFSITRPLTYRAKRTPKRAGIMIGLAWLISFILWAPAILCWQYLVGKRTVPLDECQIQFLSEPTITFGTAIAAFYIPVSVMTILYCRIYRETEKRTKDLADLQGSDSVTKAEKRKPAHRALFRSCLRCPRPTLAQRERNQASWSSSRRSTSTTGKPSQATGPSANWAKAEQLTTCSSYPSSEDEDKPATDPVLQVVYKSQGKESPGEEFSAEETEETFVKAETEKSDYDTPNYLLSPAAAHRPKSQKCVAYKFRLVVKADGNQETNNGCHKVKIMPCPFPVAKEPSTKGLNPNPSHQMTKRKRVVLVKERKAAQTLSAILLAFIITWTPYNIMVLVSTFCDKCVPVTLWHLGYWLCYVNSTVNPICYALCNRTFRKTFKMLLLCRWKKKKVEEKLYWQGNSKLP
Nature of the data set: Partial agonist activity at human M5 receptor in CHO cells assessed as calcium mobilization at 3 uM after 60 mins by FLIPR assay. It is filed as functional, cell-based.

Data set [8] concerns Cynomolgus monkey. Put plainly: Cardiotoxicity in telemetered cynomolgus monkey assessed as prolongation of QRS duration at 1.5 to 6 mg/kg, sc measured after 1 to 4 hrs by telemetry method. It is filed as toxicity, organism-based, Macaca fascicularis. Further details: route subcutaneous. Conditions: in vivo.
The subject of data set [9] is Mus musculus. Put plainly: Induction of seizures in ddY mouse at 100 mg/kg, sc measured for 45 mins after drug injection. It is filed as organism-based. Further details: dose 100 mg/kg, route subcutaneous. The following applies: in vivo, 0.75 h.

Results on one molecule are retold here after ChEMBL document CHEMBL2331215, “Discovery of novel N-substituted oxindoles as selective m1 and m4 muscarinic acetylcholine receptors partial agonists” (ACS Med Chem Lett, 2013).

Each structure is given as a SMILES string. Active and inactive are the calls of the source. No cut-off for these calls is given here.

On to `CCOC(=O)N1[C@@H]2CC[C@H]1C[C@H](CN1CC[C@H](N3C(=O)Cc4ccccc43)C1)C2`, for which the Activity result in the data set on Cynomolgus monkey [1] was “Non-toxic”; in data set [3] it was 63%; in data set [6], 25%; in data set [7], 17%; in the data set on Cynomolgus monkey [8], “Non-toxic”; in the data set on Mus musculus [9], “Non-toxic”. Besides, the inhibition result with Mus musculus [2] is “Active”. Besides, the EC50 in data set [4] came to 12 nM. Moreover, in data set [5], the Intrinsic activity came to 60%.
